Values after ≈ are worked out from the molar mass of the structure shown.
Assays:
Assay type in all cases: functional
[1] = test system: Candida albicans; test: Antifungal activity against Candida albicans ATCC 10231 after 48 hrs by CLSI M27-A3 method; conditions: ATCC 10231, 48 h
[2] = test system: Candida albicans; test: Antifungal activity against Candida albicans ATCC MYA-1237 after 48 hrs by CLSI M27-A3 method; conditions: ATCC MYA-1237, 48 h
[3] = test system: Aspergillus flavus; test: Antifungal activity against Aspergillus flavus ATCC MYA-3631 after 48 hrs by CLSI M38-A2 method; conditions: ATCC MYA-3631, 48 h
[4] = test system: Nakaseomyces glabratus; test: Antifungal activity against Candida glabrata ATCC 2001 after 48 hrs by CLSI M27-A3 method; conditions: CBS 138, 48 h
[5] = test system: Candida parapsilosis; test: Antifungal activity against Candida parapsilosis ATCC 22019 after 48 hrs by CLSI M27-A3 method; conditions: Lodderomyces parapsilosis, ATCC 22019, 48 h
[6] = test system: Candida albicans; test: Antifungal activity against Candida albicans ATCC MYA-2876 after 48 hrs by CLSI M27-A3 method; conditions: ATCC MYA-2876, 48 h
[7] = test system: Candida albicans; test: Antifungal activity against Candida albicans ATCC 64124 after 48 hrs by CLSI M27-A3 method; conditions: ATCC 64124, 48 h
[8] = test system: Aspergillus terreus; test: Antifungal activity against Aspergillus terreus ATCC MYA3633 after 48 hrs by CLSI M38-A2 method; conditions: ATCC MYA3633, 48 h
[9] = test system: Candida albicans; test: Antifungal activity against Candida albicans ATCC MYA-2310 after 48 hrs by CLSI M27-A3 method; conditions: ATCC MYA-2310, 48 h
[10] = test system: Aspergillus nidulans; test: Antifungal activity against Aspergillus nidulans ATCC 38163 after 48 hrs by CLSI M38-A2 method; conditions: ATCC 38163, 48 h
[11] = test system: Pichia kudriavzevii; test: Antifungal activity against Candida krusei ATCC 6258 after 48 hrs by CLSI M27-A3 method; conditions: ATCC 6258, 48 h
[12] = test system: Candida albicans; test: Antifungal activity against Candida albicans ATCC MYA-90819 after 48 hrs by CLSI M27-A3 method; conditions: ATCC MYA-90819, 48 h
[13] = test system: Candida albicans; test: Antifungal activity against Candida albicans ATCC MYA-1003 after 48 hrs by CLSI M27-A3 method; conditions: ATCC MYA-1003, 48 h

| Compound | MIC [1] [µg/mL] | MIC [2] [µg/mL] | MIC [3] [µg/mL] | MIC [4] [µg/mL] | MIC [5] [µg/mL] | MIC [6] [µg/mL] | MIC [7] [µg/mL] | MIC [8] [µg/mL] | MIC [9] [µg/mL] | MIC [10] [µg/mL] | MIC [11] [µg/mL] | MIC [12] [µg/mL] | MIC [13] [µg/mL] |
| --- | --- | --- | --- | --- | --- | --- | --- | --- | --- | --- | --- | --- | --- |
| C#CCOc1ccc(-c2nc3ccc(-c4nc5ccc(-c6nc7ccc(N8CCN(C)CC8)cc7[nH]6)cc5[nH]4)cc3[nH]2)cc1 | > 31.2 | > 31.2 | > 31.2 | 31.2 (≈ 53.9 µM) | > 31.2 | > 31.2 | > 31.2 | 31.2 (≈ 53.9 µM) | > 31.2 | 31.2 (≈ 53.9 µM) | > 31.2 | > 31.2 | > 31.2 |
| CCCCCN1CCN(c2ccc3nc(-c4ccc5nc(-c6ccc(OCC)cc6)[nH]c5c4)[nH]c3c2)CC1 | > 31.2 | > 31.2 | > 31.2 | > 31.2 | > 31.2 | > 31.2 | > 31.2 | > 31.2 | > 31.2 | > 31.2 | > 31.2 | > 31.2 | > 31.2 |
| CCCCCCCCCCCCOc1ccc(-c2nc3ccc(-c4nc5ccc(N6CCN(C)CC6)cc5[nH]4)cc3[nH]2)cc1 | > 31.2 | > 31.2 | > 31.2 | > 31.2 | > 31.2 | > 31.2 | > 31.2 | > 31.2 | > 31.2 | > 31.2 | > 31.2 | > 31.2 | > 31.2 |
| CCCCCN1CCN(c2ccc3nc(-c4ccc5nc(-c6ccc(OC)cc6)[nH]c5c4)[nH]c3c2)CC1 | > 31.2 | > 31.2 | > 31.2 | > 31.2 | 15.6 (≈ 31.5 µM) | > 31.2 | > 31.2 | > 31.2 | > 31.2 | > 31.2 | > 31.2 | > 31.2 | > 31.2 |
| CN1CCN(c2ccc3nc(-c4ccc5nc(-c6ccc(OCCO)cc6)[nH]c5c4)[nH]c3c2)CC1 | > 31.2 | > 31.2 | 31.2 (≈ 66.6 µM) | 31.2 (≈ 66.6 µM) | 15.6 (≈ 33.3 µM) | 31.2 (≈ 66.6 µM) | > 31.2 | 15.6 (≈ 33.3 µM) | 31.2 (≈ 66.6 µM) | 15.6 (≈ 33.3 µM) | 7.8 (≈ 16.6 µM) | > 31.2 | 31.2 (≈ 66.6 µM) |
| C[C@@H](c1ncncc1F)[C@](O)(Cn1cncn1)c1ccc(F)cc1F [VORICONAZOLE] | – | 7.8 (≈ 22.3 µM) | – | – | < 0.03 | 1.95 (≈ 5.58 µM) | 3.9 (≈ 11.2 µM) | 0.12 (≈ 0.344 µM) | 0.975 (≈ 2.79 µM) | 0.03 (≈ 0.0859 µM) | 0.12 (≈ 0.344 µM) | 1.95 (≈ 5.58 µM) | 1.95 (≈ 5.58 µM) |
| CN1CCN(c2ccc3nc(-c4ccc5nc(-c6ccc(OCCOCCO)cc6)[nH]c5c4)[nH]c3c2)CC1 | > 31.2 | > 31.2 | > 31.2 | > 31.2 | 31.2 (≈ 60.9 µM) | > 31.2 | > 31.2 | > 31.2 | > 31.2 | > 31.2 | 7.8 (≈ 15.2 µM) | > 31.2 | > 31.2 |
| OC(Cn1cncn1)(Cn1cncn1)c1ccc(F)cc1F [FLUCONAZOLE] | – | – | – | > 31.2 | 1.95 (≈ 6.37 µM) | 15.6 (≈ 50.9 µM) | > 125 | – | > 125 | – | – | > 125 | – |
| CCN1CCN(c2ccc3nc(-c4ccc5nc(-c6ccc(OC)cc6)[nH]c5c4)[nH]c3c2)CC1 | > 31.2 | > 31.2 | > 31.2 | 7.8 (≈ 17.2 µM) | 7.8 (≈ 17.2 µM) | > 31.2 | > 31.2 | > 31.2 | > 31.2 | > 31.2 | 31.2 (≈ 68.9 µM) | > 31.2 | > 31.2 |
| C#CCOc1ccc(-c2nc3ccc(-c4nc5ccc(N6CCN(CCC)CC6)cc5[nH]4)cc3[nH]2)cc1 | > 31.2 | > 31.2 | > 31.2 | > 31.2 | > 31.2 | > 31.2 | > 31.2 | > 31.2 | > 31.2 | > 31.2 | 15.6 (≈ 31.8 µM) | > 31.2 | > 31.2 |
| C#CCOc1ccc(-c2nc3ccc(N4CCN(C)CC4)cc3[nH]2)cc1 | > 31.2 | > 31.2 | > 31.2 | > 31.2 | > 31.2 | > 31.2 | > 31.2 | > 31.2 | > 31.2 | > 31.2 | > 31.2 | > 31.2 | > 31.2 |
| CCCN1CCN(c2ccc3nc(-c4ccc5nc(-c6ccc(OC)cc6)[nH]c5c4)[nH]c3c2)CC1 | > 31.2 | > 31.2 | > 31.2 | > 31.2 | 31.2 (≈ 66.9 µM) | > 31.2 | > 31.2 | > 31.2 | > 31.2 | > 31.2 | 7.8 (≈ 16.7 µM) | > 31.2 | > 31.2 |
| CC[C@@H]([C@H](C)O)n1ncn(-c2ccc(N3CCN(c4ccc(OC[C@@H]5CO[C@@](Cn6cncn6)(c6ccc(F)cc6F)C5)cc4)CC3)cc2)c1=O [POSACONAZOLE] | 0.5 (≈ 0.713 µM) | 15.6 (≈ 22.3 µM) | 0.24 (≈ 0.342 µM) | 0.12 (≈ 0.171 µM) | < 0.03 | 7.8 (≈ 11.1 µM) | > 62.5 | 0.48 (≈ 0.685 µM) | 31.2 (≈ 44.5 µM) | 0.195 (≈ 0.278 µM) | 0.06 (≈ 0.0856 µM) | 31.2 (≈ 44.5 µM) | 15.6 (≈ 22.3 µM) |
| CCCN1CCN(c2ccc3nc(-c4ccc5nc(-c6ccc(OCC)cc6)[nH]c5c4)[nH]c3c2)CC1 | > 31.2 | > 31.2 | > 31.2 | > 31.2 | > 31.2 | > 31.2 | > 31.2 | > 31.2 | > 31.2 | > 31.2 | 15.6 (≈ 32.5 µM) | > 31.2 | > 31.2 |
| CCOc1ccc(-c2nc3ccc(-c4nc5ccc(N6CCN(CC)CC6)cc5[nH]4)cc3[nH]2)cc1 | 15.6 (≈ 33.4 µM) | 15.6 (≈ 33.4 µM) | > 31.2 | 31.2 (≈ 66.9 µM) | 3.9 (≈ 8.36 µM) | 15.6 (≈ 33.4 µM) | 15.6 (≈ 33.4 µM) | 15.6 (≈ 33.4 µM) | 15.6 (≈ 33.4 µM) | 15.6 (≈ 33.4 µM) | 15.6 (≈ 33.4 µM) | 15.6 (≈ 33.4 µM) | > 31.2 |
| CCCN1CCN(c2ccc3nc(-c4ccc5nc(-c6ccc(O)cc6)[nH]c5c4)[nH]c3c2)CC1 | 31.2 (≈ 68.9 µM) | 31.2 (≈ 68.9 µM) | > 31.2 | 7.8 (≈ 17.2 µM) | 7.8 (≈ 17.2 µM) | 31.2 (≈ 68.9 µM) | 31.2 (≈ 68.9 µM) | 15.6 (≈ 34.5 µM) | 31.2 (≈ 68.9 µM) | 7.8 (≈ 17.2 µM) | 31.2 (≈ 68.9 µM) | 31.2 (≈ 68.9 µM) | 31.2 (≈ 68.9 µM) |
| CCC(C)n1ncn(-c2ccc(N3CCN(c4ccc(OCC5COC(Cn6cncn6)(c6ccc(Cl)cc6Cl)O5)cc4)CC3)cc2)c1=O (stereo not given) [ITRACONAZOLE] | 0.5 (≈ 0.709 µM) | 31.2 (≈ 44.2 µM) | 0.48 (≈ 0.68 µM) | – | 0.12 (≈ 0.17 µM) | 7.8 (≈ 11.1 µM) | > 62.5 | 0.975 (≈ 1.38 µM) | 31.2 (≈ 44.2 µM) | 0.195 (≈ 0.276 µM) | 0.48 (≈ 0.68 µM) | 31.2 (≈ 44.2 µM) | 31.2 (≈ 44.2 µM) |
